These results are taken from patent publication US12686673B2 (Blueprint Medicines Corporation, priority 2020, dated 2026).

Counter-ions that a name gives are not always drawn. Like-named read-outs stand apart in the source and are kept apart here.

What all share (type): cell-based
Assay [1] deals with EGFR(D770_N771insSVD) expressing Ba/F3 stable cell line (Homo sapiens, UniProt P00533, DUP768-770, cells depend on it). The assay is described as follows: Cellular proliferation (Alamar Blue) assay, EGFR D770_N771insSVD Ba/F3. To be noted: 72 hr, read-out: D770 IC50. The method in brief: (§1)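 Each stable Ba/F3 line, cultured in RPMI with 10% FBS at 15,000 cells per well, received a threefold compound series (final top 10 μM, bottom 0.0005 μM) for 72 hr at 37 degree Celsius, then Alamar Blue for 3 h.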
Chain of EGFR(D770_N771insSVD) expressing Ba/F3 stable cell line (P00533 with tags, fused parts or gaps DUP768-770): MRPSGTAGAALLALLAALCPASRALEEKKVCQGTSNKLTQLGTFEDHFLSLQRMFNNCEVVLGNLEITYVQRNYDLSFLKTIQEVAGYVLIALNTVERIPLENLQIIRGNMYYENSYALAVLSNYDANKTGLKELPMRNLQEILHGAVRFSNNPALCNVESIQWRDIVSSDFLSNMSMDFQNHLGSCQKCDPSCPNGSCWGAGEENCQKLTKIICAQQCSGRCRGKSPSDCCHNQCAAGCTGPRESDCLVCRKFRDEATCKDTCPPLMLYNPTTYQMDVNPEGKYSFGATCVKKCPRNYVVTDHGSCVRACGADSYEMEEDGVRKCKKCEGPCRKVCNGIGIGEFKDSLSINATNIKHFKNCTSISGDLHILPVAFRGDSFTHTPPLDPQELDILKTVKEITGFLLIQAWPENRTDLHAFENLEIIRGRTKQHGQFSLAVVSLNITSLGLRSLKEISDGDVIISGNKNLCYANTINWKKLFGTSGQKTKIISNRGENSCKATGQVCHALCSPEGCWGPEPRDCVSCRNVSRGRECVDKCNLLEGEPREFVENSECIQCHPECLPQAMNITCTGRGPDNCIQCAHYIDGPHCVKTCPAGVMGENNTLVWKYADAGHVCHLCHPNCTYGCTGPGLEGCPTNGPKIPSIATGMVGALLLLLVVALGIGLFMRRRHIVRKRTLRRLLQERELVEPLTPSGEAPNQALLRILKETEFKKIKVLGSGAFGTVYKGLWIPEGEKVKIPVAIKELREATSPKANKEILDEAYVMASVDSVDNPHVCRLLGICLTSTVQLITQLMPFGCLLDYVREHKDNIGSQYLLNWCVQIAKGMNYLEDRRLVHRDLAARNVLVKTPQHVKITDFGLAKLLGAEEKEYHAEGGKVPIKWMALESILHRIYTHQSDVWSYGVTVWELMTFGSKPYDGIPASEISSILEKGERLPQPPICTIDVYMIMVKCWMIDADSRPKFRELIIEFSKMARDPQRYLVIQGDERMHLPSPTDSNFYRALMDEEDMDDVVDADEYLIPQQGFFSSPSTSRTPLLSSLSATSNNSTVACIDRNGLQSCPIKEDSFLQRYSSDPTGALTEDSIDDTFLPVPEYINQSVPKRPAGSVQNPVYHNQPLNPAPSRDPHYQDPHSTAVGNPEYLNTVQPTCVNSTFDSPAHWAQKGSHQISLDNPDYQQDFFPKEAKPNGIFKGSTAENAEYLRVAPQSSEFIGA

Assay [2] addresses EGFR (A767_dupASV) expressing Ba/F3 stable cell line (Homo sapiens, UniProt P00533, DUP767-769, cells depend on it). In words: Cellular proliferation (Alamar Blue) assay, EGFR A767_dupASV Ba/F3. To be noted: 72 hr, read-out: A767 IC50. Put shortly: as §1
The next assay deals with A431 cells. The assay is described as follows: Cellular proliferation (Alamar Blue) assay, A431. To be noted: Homo sapiens.
Assay [3] has as its target EGFR (H773insNPH) expressing Ba/F3 stable cell line (Homo sapiens, UniProt P00533, DUP771-773, cells depend on it). The assay is described as follows: Cellular proliferation (Alamar Blue) assay, EGFR H773insNPH Ba/F3. To be noted: 72 hr, read-out: NPH IC50. On the procedure: • 1. EGFR(D770_N771insSVD) expressing Ba/F3 stable cell line • 2. EGFR (A767_dupASV) expressing Ba/F3 stable cell line • 3. A431 cells • 4. EGFR (H773insNPH) expressing Ba/F3 stable cell line • 5. HER2 (A775_G776insYVMA) expressing Ba/F3 stable cell line Assay Procedure: • 1. Seed cells at 5000 for A431 and 15,000 cells for Ba/F3 in 100 μL/well in complete media (for A431: DMEM with […] and for Ba/F3 cells: RPMI with 10% FBS) in 96-well tissue culture plate. Leave outer wells without cells for background measurements. Incubate at 37 degree Celsius in […] humidified incubator for 16-18 hours. • 2. Add 0.025 ml of 5× concentration compound dilution or DMSO control. Final compound concentration range is 10-0.0005 μM prepared in 3-fold serial dilutions. Incubate for 72 hr at 37 degree Celsius in […] humidified incubator. • 3. Add 0.0125 ml Alamar Blue™ reagent to each well with multi-channel pipette and tap gently on each side of the plate to mix. Incubate for 3 hours at 37 degree Celsius in 5% CO2 humidified incubator. • 4. […] Data analysis was performed using XLfit 5.5.0.5.

For assay [4], the target named is HER2 (A775_G776insYVMA) expressing Ba/F3 stable cell line (Homo sapiens, UniProt P04626, DUP772-775, cells depend on it). In words: Cellular proliferation (Alamar Blue) assay, HER2 A775_G776insYVMA Ba/F3. Particulars: 72 hr, read-out: YVMA IC50. The method in brief: as §1
Chain of HER2 (A775_G776insYVMA) expressing Ba/F3 stable cell line (P04626 with tags, fused parts or gaps DUP772-775): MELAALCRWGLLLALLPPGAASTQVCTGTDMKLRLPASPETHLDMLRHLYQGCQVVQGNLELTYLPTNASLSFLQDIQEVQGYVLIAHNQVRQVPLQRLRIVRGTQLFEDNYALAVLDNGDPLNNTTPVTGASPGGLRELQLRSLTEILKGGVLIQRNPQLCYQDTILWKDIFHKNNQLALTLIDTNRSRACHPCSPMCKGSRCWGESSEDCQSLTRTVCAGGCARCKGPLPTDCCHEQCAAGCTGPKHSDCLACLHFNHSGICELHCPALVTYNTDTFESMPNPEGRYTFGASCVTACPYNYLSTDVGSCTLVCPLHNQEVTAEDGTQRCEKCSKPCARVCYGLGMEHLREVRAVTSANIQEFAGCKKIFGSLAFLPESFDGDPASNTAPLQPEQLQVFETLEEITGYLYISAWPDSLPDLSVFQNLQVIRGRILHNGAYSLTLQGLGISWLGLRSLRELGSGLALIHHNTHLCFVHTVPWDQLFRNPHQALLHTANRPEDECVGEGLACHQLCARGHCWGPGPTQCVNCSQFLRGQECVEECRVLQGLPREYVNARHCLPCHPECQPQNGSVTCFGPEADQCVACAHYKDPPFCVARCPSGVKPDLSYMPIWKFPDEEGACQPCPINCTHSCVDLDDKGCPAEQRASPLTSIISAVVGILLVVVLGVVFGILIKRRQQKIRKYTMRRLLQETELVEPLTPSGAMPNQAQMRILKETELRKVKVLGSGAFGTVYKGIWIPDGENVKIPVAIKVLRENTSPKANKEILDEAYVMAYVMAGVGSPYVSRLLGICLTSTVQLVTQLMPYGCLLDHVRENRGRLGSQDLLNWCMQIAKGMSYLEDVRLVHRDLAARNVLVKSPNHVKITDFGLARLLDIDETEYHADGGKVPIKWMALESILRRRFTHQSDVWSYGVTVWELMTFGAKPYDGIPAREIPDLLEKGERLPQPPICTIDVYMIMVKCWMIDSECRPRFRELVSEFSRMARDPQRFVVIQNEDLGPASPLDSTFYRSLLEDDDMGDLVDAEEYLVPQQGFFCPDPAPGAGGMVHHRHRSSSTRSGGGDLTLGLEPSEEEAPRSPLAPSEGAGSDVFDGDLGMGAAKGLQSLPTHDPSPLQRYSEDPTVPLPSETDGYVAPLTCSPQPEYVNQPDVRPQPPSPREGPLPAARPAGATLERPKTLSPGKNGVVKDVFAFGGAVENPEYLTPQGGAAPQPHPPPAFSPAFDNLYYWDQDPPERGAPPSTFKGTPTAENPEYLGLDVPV
[5] abbreviates: A-431, A431 cells, Alamar Blue, 72 hr, read-out: A431 IC50.

Chain of EGFR (A767_dupASV) expressing Ba/F3 stable cell line (P00533 with tags, fused parts or gaps DUP767-769): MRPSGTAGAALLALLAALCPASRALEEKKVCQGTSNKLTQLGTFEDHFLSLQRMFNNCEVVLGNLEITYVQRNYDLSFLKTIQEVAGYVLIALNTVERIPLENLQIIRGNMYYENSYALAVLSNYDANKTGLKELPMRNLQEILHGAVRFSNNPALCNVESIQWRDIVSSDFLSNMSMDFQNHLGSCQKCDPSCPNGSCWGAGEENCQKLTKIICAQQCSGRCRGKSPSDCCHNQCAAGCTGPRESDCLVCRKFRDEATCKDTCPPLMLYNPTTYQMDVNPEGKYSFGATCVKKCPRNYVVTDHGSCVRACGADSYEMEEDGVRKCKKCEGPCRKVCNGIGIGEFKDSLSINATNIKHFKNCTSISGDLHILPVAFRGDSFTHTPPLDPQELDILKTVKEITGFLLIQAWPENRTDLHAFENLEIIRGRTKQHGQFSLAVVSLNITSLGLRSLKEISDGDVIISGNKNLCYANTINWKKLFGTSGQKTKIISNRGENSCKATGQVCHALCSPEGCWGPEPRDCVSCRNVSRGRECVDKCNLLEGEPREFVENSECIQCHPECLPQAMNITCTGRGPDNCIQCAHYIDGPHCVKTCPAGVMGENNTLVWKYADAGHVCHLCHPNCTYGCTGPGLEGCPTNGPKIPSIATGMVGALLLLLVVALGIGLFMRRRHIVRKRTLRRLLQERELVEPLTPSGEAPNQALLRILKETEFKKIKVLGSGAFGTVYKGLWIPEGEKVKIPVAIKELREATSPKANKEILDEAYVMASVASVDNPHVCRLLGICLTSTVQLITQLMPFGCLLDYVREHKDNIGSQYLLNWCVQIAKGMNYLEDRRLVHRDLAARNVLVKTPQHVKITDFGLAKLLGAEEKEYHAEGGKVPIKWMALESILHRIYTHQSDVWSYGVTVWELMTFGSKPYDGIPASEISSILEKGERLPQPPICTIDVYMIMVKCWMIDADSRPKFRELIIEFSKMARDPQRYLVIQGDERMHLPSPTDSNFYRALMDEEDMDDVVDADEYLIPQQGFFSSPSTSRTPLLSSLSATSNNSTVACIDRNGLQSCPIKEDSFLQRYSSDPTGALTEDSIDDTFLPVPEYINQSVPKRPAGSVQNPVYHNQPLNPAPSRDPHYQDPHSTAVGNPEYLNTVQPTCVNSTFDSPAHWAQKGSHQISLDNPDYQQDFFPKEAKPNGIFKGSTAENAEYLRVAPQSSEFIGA
Chain of EGFR (H773insNPH) expressing Ba/F3 stable cell line (P00533 with tags, fused parts or gaps DUP771-773): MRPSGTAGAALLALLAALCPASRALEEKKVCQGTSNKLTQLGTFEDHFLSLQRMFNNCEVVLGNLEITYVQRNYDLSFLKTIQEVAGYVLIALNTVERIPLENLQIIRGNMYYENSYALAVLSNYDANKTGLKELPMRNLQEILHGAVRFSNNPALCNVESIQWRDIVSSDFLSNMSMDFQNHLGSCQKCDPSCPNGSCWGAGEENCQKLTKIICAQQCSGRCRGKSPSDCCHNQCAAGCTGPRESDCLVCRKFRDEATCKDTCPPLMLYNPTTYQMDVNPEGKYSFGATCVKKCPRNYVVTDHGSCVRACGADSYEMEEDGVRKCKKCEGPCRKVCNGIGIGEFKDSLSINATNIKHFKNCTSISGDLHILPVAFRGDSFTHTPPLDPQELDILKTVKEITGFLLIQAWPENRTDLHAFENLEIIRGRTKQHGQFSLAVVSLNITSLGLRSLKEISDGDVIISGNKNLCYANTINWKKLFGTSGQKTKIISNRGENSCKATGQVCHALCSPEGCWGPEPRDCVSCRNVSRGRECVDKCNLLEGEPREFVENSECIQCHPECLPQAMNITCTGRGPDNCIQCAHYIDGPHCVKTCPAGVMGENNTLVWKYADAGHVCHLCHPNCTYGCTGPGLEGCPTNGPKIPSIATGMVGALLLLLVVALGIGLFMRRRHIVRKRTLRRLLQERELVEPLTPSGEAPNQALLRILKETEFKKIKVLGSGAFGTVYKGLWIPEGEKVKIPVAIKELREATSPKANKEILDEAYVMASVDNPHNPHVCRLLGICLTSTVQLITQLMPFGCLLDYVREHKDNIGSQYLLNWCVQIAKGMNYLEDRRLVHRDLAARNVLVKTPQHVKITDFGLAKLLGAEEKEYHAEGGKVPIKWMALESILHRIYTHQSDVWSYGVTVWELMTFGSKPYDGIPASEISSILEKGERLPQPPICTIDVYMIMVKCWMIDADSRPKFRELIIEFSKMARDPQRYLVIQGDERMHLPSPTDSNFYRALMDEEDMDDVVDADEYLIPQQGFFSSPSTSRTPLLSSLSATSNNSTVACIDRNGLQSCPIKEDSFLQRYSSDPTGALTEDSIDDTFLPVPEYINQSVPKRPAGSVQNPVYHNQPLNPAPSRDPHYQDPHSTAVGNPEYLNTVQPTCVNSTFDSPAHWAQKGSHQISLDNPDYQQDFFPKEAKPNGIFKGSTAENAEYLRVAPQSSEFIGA

With `C=CC(=O)Nc1ccc(F)c(Nc2nc(Nc3ccc(CN(C)C)cc3)ncc2-c2ccc(C(F)(F)F)cc2)c1` [Compound 45, N-(3-((2-((4-((dimethylamino)methyl)phenyl)amino)-5-(4-(trifluoromethyl)phenyl)pyrimidin-4-yl)amino)-4-fluorophenyl)acrylamide trifluoroacetate], the GI50 in assay [1] turned out to be 105 nM; in assay [2], 238 nM; in assay [3], 149 nM; in assay [4], 134 nM. Further, the IC50 with A431 cells (setting [5]) was 27 nM.
The like results for `C=CC(=O)Nc1ccc(F)c(Nc2nc(Nc3cnn(C)c3)ncc2-c2ccc(C(F)(F)F)nc2)c1` [Compound 57, N-(4-fluoro-3-((2-((1-methyl-1H-pyrazol-4-yl)amino)-5-(6-(trifluoromethyl)pyridin-3-yl)pyrimidin-4-yl)amino)phenyl)acrylamide] were, in that order, 44 nM, 71 nM, 82 nM, 177 nM and 1940 nM.
The like results for `C=CC(=O)Nc1ccc(F)c(Nc2nc(Nc3cnn(C)c3)ncc2-c2ccc(Cl)cc2)c1` [Compound 61, N-(3-((5-(4-chlorophenyl)-2-((1-methyl-1H-pyrazol-4-yl)amino)pyrimidin-4-yl)amino)-4-fluorophenyl)acrylamide] were, in that order, 56 nM, 99 nM, 91 nM, 219 nM and 261 nM.
For `C=CC(=O)Nc1ccc(F)c(Nc2nc(Nc3cnn(C)c3)ncc2-c2ccc(F)cc2)c1` [Compound 63, N-(4-fluoro-3-((5-(4-fluorophenyl)-2-((1-methyl-1H-pyrazol-4-yl)amino)pyrimidin-4-yl)amino)phenyl)acrylamide], the GI50 was determined as 60 nM in assay [1], 102 nM in assay [2], 116 nM in assay [3] and 344 nM in assay [4]. Moreover, the 50% inhibitory concentration (IC50) in the assay with A431 cells (setting [5]) was 1280 nM.
The like results for `C=CC(=O)Nc1ccc(F)c(Nc2nc(Nc3cnn(C)c3)ncc2-c2cncc(C)c2)c1` [Compound 67, N-(4-fluoro-3-((2-((1-methyl-1H-pyrazol-4-yl)amino)-5-(5-methylpyridin-3-yl)pyrimidin-4-yl)amino)phenyl)acrylamide] were, in that order, 30 nM, 36 nM, 41 nM, 26 nM and 120 nM.
The like results for `C=CC(=O)Nc1ccc(F)c(Nc2nc(Nc3cnn(C)c3)ncc2-c2ccnc(OC)c2)c1` [Compound 68, N-(4-fluoro-3-((5-(2-methoxypyridin-4-yl)-2-((1-methyl-1H-pyrazol-4-yl)amino)pyrimidin-4-yl)amino)phenyl)acrylamide] were, in that order, 101 nM, 108 nM, 107 nM, 128 nM and 223 nM.
The like results for `C=CC(=O)Nc1ccc(F)c(Nc2nc(Nc3cnn(C)c3)ncc2-c2cncc(F)c2)c1` [Compound 69, N-(4-fluoro-3-((5-(5-fluoropyridin-3-yl)-2-((1-methyl-1H-pyrazol-4-yl)amino)pyrimidin-4-yl)amino)phenyl)acrylamide] were, in that order, 11 nM, 14 nM, 21 nM, 19 nM and 65 nM.
As for `C=CC(=O)Nc1ccc(F)c(Nc2nc(Nc3cnn(C)c3)ncc2-c2ccc(OC(F)F)nc2)c1` [Compound 70, N-(3-((5-(6-(difluoromethoxy)pyridin-3-yl)-2-((1-methyl-1H-pyrazol-4-yl)amino)pyrimidin-4-yl)amino)-4-fluorophenyl)acrylamide], the GI50 in assay [1] came to 35 nM; in assay [2], 36 nM; in assay [3] it was 88 nM; in assay [4], 123 nM. In addition, the concentration for half-maximal inhibition (IC50) in the assay with A431 cells (setting [5]) came out at 77 nM.
The corresponding values for `C=CC(=O)Nc1ccc(F)c(Nc2nc(Nc3cnn(C)c3)ncc2-c2ccnc(OC(F)F)c2)c1` [Compound 71, N-(3-((5-(2-(difluoromethoxy)pyridin-4-yl)-2-((1-methyl-1H-pyrazol-4-yl)amino)pyrimidin-4-yl)amino)-4-fluorophenyl)acrylamide] are 107 nM, 107 nM, 103 nM, 226 nM and 150 nM.
Regarding `C=CC(=O)Nc1ccc(F)c(Nc2nc(Nc3cnn(CCN(C)C)c3)ncc2-c2ccc(C(F)(F)F)cc2)c1` [Compound 72, N-(3-((2-((1-(2-(dimethylamino)ethyl)-1H-pyrazol-4-yl)amino)-5-(4-(trifluoromethyl)phenyl)pyrimidin-4-yl)amino)-4-fluorophenyl)acrylamide trifluoroacetate], the GI50 came to 99 nM in assay [1], 108 nM in assay [2], 95 nM in assay [3] and 129 nM in assay [4]. The IC50 in the assay on A431 cells (setting [5]) came out at 80 nM.
In the case of `C=CC(=O)Nc1cccc(Nc2nc(Nc3cnn(C)c3)ncc2-c2ccc(C(F)(F)F)nc2)c1` [Compound 73, N-(3-((2-((1-methyl-1H-pyrazol-4-yl)amino)-5-(6-(trifluoromethyl)pyridin-3-yl)pyrimidin-4-yl)amino)phenyl)acrylamide], the GI50 amounted to 39 nM in assay [1], 45 nM in assay [2], 100 nM in assay [3] and 113 nM in assay [4]. In addition, the IC50 in the assay with A431 cells (setting [5]) turned out to be 252 nM.
The like results for `C=CC(=O)Nc1cccc(Nc2nc(Nc3cnn(C)c3)ncc2-c2ccc(F)nc2)c1` [Compound 74, N-(3-((5-(6-fluoropyridin-3-yl)-2-((1-methyl-1H-pyrazol-4-yl)amino)pyrimidin-4-yl)amino)phenyl)acrylamide] were, in that order, 36 nM, 38 nM, 43 nM, 70 nM and 236 nM.
The like results for `C=CC(=O)Nc1ccc(F)c(Nc2nc(Nc3cnn(C)c3)ncc2-c2ccc(Br)cc2)c1` [Compound 75, N-(3-((5-(4-bromophenyl)-2-((1-methyl-1H-pyrazol-4-yl)amino)pyrimidin-4-yl)amino)-4-fluorophenyl)acrylamide trifluoroacetate] were, in that order, 35 nM, 74 nM, 43 nM, 100 nM and 37 nM.
For the molecule `C=CC(=O)Nc1ccc(F)c(Nc2nc(Nc3cnn(CCO)c3)ncc2-c2ccc(C(F)(F)F)cc2)c1` [Compound 78, N-(4-fluoro-3-((2-((1-(2-hydroxyethyl)-1H-pyrazol-4-yl)amino)-5-(4-(trifluoromethyl)phenyl)pyrimidin-4-yl)amino)phenyl)acrylamide], the GI50 in assay [1] worked out at 84 nM; in assay [2], 93 nM; in assay [3] it was 53 nM; in assay [4] it was 266 nM. Further, in the assay on A431 cells (setting [5]), the IC50 was over 10000 nM.
The corresponding values for `C=CC(=O)Nc1ccc(F)c(Nc2nc(Nc3cnn(C)c3)ncc2-c2ccnc(F)c2)c1` [Compound 82, N-(4-fluoro-3-((5-(2-fluoropyridin-4-yl)-2-((1-methyl-1H-pyrazol-4-yl)amino)pyrimidin-4-yl)amino)phenyl)acrylamide] are 38 nM, 103 nM, 57 nM, 226 nM and 590 nM.
As for `C=CC(=O)Nc1ccc(F)c(Nc2nc(Nc3cnn(C)c3)ncc2-c2ccnc(C(F)(F)F)c2)c1` [Compound 83, N-(4-fluoro-3-((2-((1-methyl-1H-pyrazol-4-yl)amino)-5-(2-(trifluoromethyl)pyridin-4-yl)pyrimidin-4-yl)amino)phenyl)acrylamide], the GI50 was determined as 61 nM in assay [1], 88 nM in assay [2], 51 nM in assay [3] and 255 nM in assay [4]. For the same molecule, the 50% inhibitory concentration (IC50) with A431 cells (setting [5]) is 53 nM.
For the molecule `C=CC(=O)Nc1ccc(F)c(Nc2nc(Nc3cnn(C)c3)ncc2-c2cccnc2)c1` [Compound 84, N-(4-fluoro-3-((2-((1-methyl-1H-pyrazol-4-yl)amino)-5-(pyridin-3-yl)pyrimidin-4-yl)amino)phenyl)acrylamide], the GI50 is 64 nM in assay [1], 83 nM in assay [2], 50 nM in assay [3] and 119 nM in assay [4]. Besides, in the assay with A431 cells (A-431, 72 h, read-out: A431 IC50 (nM)), the IC50 was 191 nM.
